Earlier results, collected in patent EP0959130A1, “Cloning and expression of a new glucoamylase gene from endomyces fibuliger” (SOCIETE DES PRODUITS NESTLE S.A., priority 1998, dated 1999).

Tests used:
[1] = test system: Glucoamylase I from E.fibuliger IFO 0111; conditions: purified Glucoamylase I; from Futatsugi et al., 1993; read-out: Km for maltose
[2] = test system: Glucoamylase II from E.fibuliger IFO 0111; conditions: purified Glucoamylase II; from Futatsugi et al., 1993; read-out: Km for maltose

## OC[C@H]1O[C@H](O[C@H]2[C@H](O)[C@@H](O)C(O)O[C@@H]2CO)[C@H](O)[C@@H](O)[C@@H]1O (mixture of isomers) [maltose]
[1]
  Km: 8.3 mM
[2]
  Km: 2.6 mM
